Molecules are shown by their SMILES. ≈ marks a conversion by molar mass, not a printed value.

The test system of assay [1] is Mus musculus. The assay is described as follows: Toxicity in BDF1 mouse xenografted with mouse B16 cells assessed as survival at 0.8 mg/kg after 5 days. Details: dose 0.8 mg/kg. Format: organism-based.
The subject of assay [2] is B16. In words: Antitumor activity against mouse B16 cells xenografted in BDF1 mouse at 0.4 mg/kg relative to control. Format: functional.
Assay [3] deals with Streptococcus pyogenes. In words: Antibacterial activity against Streptococcus pyogenes A-9604 by 2-fold tube dilution method. It counts as functional.
For assay [4], the system named is L1210. The assay is described as follows: Antitumor activity against mouse L1210 cells xenografted in BDF1 mouse assessed as change in tumor average weight at 3.2 mg/kg, ip. As to conditions: route intraperitoneal. Format: functional.
The test system of assay [5] is Candida tropicalis. In words: Antifungal activity against Candida tropicalis A15051 by 2-fold tube dilution method. It counts as functional.
The subject of assay [6] is Escherichia coli. The assay is described as follows: Antibacterial activity against Escherichia coli A15119 by 2-fold tube dilution method. It counts as functional.
The test system of assay [7] is B16. In words: Antitumor activity against mouse B16 cells xenografted in BDF1 mouse assessed as median survival time at 0.05 mg/kg. It counts as functional.
For assay [8], the system named is Pseudomonas aeruginosa. The assay is described as follows: Antibacterial activity against Pseudomonas aeruginosa A-9843A by 2-fold tube dilution method. Format: functional.
The subject of assay [9] is Candida albicans. In words: Antifungal activity against Candida albicans A15050 by 2-fold tube dilution method. Format: functional.
For assay [10], the system named is Trichophyton mentagrophytes. The assay is described as follows: Antifungal activity against Trichophyton mentagrophytes A-9870 by 2-fold tube dilution method. Format: functional.
In assay [11] the test system is Candida albicans. In words: Antifungal activity against Candida albicans A-9540 by 2-fold tube dilution method. Format: functional.
Assay [12] has as its system L1210. In words: Antitumor activity against mouse L1210 cells xenografted in BDF1 mouse at 3.2 mg/kg, ip relative to control. It counts as functional. As to conditions: route intraperitoneal.
Assay [13] has as its system B16. In words: Antitumor activity against mouse B16 cells xenografted in BDF1 mouse assessed as median survival time at 0.4 mg/kg. Format: functional.
Assay [14] relates to L1210. In words: Antitumor activity against mouse L1210 cells xenografted in BDF1 mouse assessed as median survival time at 0.8 mg/kg, ip. It counts as functional. As to conditions: route intraperitoneal.
For assay [15], the system named is B16. In words: Antitumor activity against mouse B16 cells xenografted in BDF1 mouse assessed as median survival time at 0.8 mg/kg. It counts as functional.
Assay [16] concerns L1210. The assay is described as follows: Antitumor activity against mouse L1210 cells xenografted in BDF1 mouse assessed as median survival time at 3.2 mg/kg, ip. It counts as functional. As to conditions: route intraperitoneal.

The term T/C denotes the result in the treated group divided by that in the control group, in per cent. As a reminder, the MIC is the least concentration at which growth counts as inhibited. For the compound `CC[C@@]1(O)C[C@H](O[C@H]2C[C@H](N(C)C)[C@H](O[C@H]3C[C@H](O)[C@H](O[C@@H]4O[C@@H](C)C(=O)C=C4N)[C@@H](C)O3)[C@@H](C)O2)c2c(cc3c(c2O)C(=O)c2c(O)ccc(O)c2C3=O)[C@H]1C(=O)OC` [RUDOLPHOMYCIN], the AC50 entry in assay [1] is “Non-toxic”. Besides, the T/C in assay [2] was determined as 133%; in assay [12] it was 107%. In addition, the MIC is 0.25 µg/mL (≈ 0.297 µM) in assay [3]; above 16 µg/mL in [5]; above 125 µg/mL in assay [6]; above 125 µg/mL in assay [8]; above 16 µg/mL in [9]; above 16 µg/mL in assay [10]. In addition, the minimum inhibitory concentration (MIC) in assay [11] was above 16 µg/mL. Also, the Activity was -2.2 g in assay [4]; 22 days in assay [7]; 26.5 days in [13]; 9 days in assay [14]; 29 days in assay [15]; 8 days in [16].

These data come from ChEMBL document CHEMBL1151339, “Antitumor agents from bohemic acid complex, III. The isolation of marcellomycin, musettamycin, rudolphomycin, mimimycin, collinemycin, alcindoromycin, and bohemamine” (J Nat Prod, 1980).
